This assay relates to chronic obstructive pulmonary disease-model animal. Put plainly: Drug efficacy evaluation in the chronic obstructive pulmonary disease-model animal (change of respiratory function).
Where [1] appears, read: 10 mg/kg orally 1 hour before cigarette solution and LPS solution, guinea-pig, average values of 6 animals.

Under setting [1], `Cn1c(=O)c2[nH]cnc2n(C)c1=O` [Theophylline, theophylline] came in with a Peak expiratory flow of 19.0 mL/s, a Respiratory minute rate of 124 breaths/min, a Respiratory minute volume of 457 mL/min and a Tidal volume of 3.7 mL. Moreover, the “Effect on respiration function (in words)” value (10 mg/kg orally, COPD-model guinea-pig) was “improvement effect of respiration function”.

(Values after US20080072338A1, “Animal for Drug Efficacy Evaluation, Method for Developing Chronic Obstructive Pulmonary Disease in Animal for Drug Efficacy Evaluation, and Method for Evaluating Drug Efficacy Using the Animal” (priority 2004, published 2008).)
